Each structure is given as a SMILES string. Several values for one entry are separate records, joined by “and”; a condition that tells them apart may be missing. Identical values can stand only once. Like-named read-outs stand apart in the source and are kept apart here. Some results are limits rather than exact numbers.

As usually defined, the IC50 is the concentration needed to halve the response being measured.

The subject of series [1] is HeLa-CD4-βgal cells.
The test system of series [2] is HIV-1 LAI. The settings on record: for HIV Infectivity in HeLa CD4 βgal cells (β-gal units) - antiviral control / HIV Infectivity in HeLa CD4 βgal cells, percentage of vehicle - antiviral control: single data point.
The nature of another series: in vitro. The settings on record: human.
The subject of series [3] is HIV-1 LAI. The series can be described thus: microbe, parasite or virus in culture. The following applies: Human immunodeficiency virus 1, 48 h, read-out: IC50 (infectivity), Control HIV Inhibitors.
The test system of series [4] is HeLa-CD4-βgal cells. The series can be described thus: XTT viability (cytotoxicity) assay, uninfected HeLa-CD4-βgal cells (Experiment 4). The settings on record: for Viability of HeLa-CD4-βgal cells in the XTT assay (percentage values): 48 hours, single data point; for Viability of Uninfected HeLa-CD4-β gal Cells (A490): XTT, raw absorbance 490 nm. (Tetrazolium assays rely on reduction of a dye to a coloured formazan, in cell work by metabolically active cells.)

In the next series the test system is HRSV Long strain. Description: HRSV infectivity assay, immunostaining readout in HEp-2 cells. Type of series: cell-based, human respiratory syncytial virus (HRSV) Long strain.

For `C[S+](C)[O-]` [DMSO], the “Viability of Uninfected HeLa-CD4-β gal Cells (% vehicle alone), controls” value with HeLa-CD4-βgal cells [1] is given as −0.5 ± 0.1 % vehicle alone.

In the case of `CC(C)OC(=O)[C@H](C)N[P@](=O)(CO[C@H](C)Cn1cnc2c(N)ncnc21)Oc1ccccc1` [TAF, tenofovir alafenamide], the “HIV Infectivity in HeLa CD4 βgal cells (β-gal units) - antiviral control” value was 1,043,762 RLU in the series on HIV-1 LAI [2] (0.00005 μM); 1,038,889 RLU in the series on HIV-1 LAI [2] (0.0003 μM); 935,932 RLU in the series on HIV-1 LAI [2] (0.001 μM); 575,616 RLU in the series with HIV-1 LAI [2] (0.006 μM); 145,403 RLU in the series on HIV-1 LAI [2] (0.03 μM); 6,426 RLU in the series on HIV-1 LAI [2] (0.2 μM). The results for the “HIV Infectivity in HeLa CD4 βgal cells (β-gal units) - antiviral control” value in the series with HIV-1 LAI [2] (0.8 μM), in the series on HIV-1 LAI [2] (4.0 μM) and with HIV-1 LAI [2] (20 μM) were 2,064 RLU, 1,893 RLU and 1,475 RLU, respectively. In addition, the “HIV Infectivity in HeLa CD4 βgal cells, percentage of vehicle - antiviral control” value in the series with HIV-1 LAI [2] (0.00005 μM) was determined as 91.9 % vehicle; in the series with HIV-1 LAI [2] (0.0003 μM), 91.5 % vehicle; in the series with HIV-1 LAI [2] (0.001 μM) it was 82.4 % vehicle; with HIV-1 LAI [2] (0.006 μM), 50.6 % vehicle; in the series on HIV-1 LAI [2] (0.03 μM), 12.6 % vehicle; with HIV-1 LAI [2] (0.2 μM) it was 0.3 % vehicle. The “HIV Infectivity in HeLa CD4 βgal cells, percentage of vehicle - antiviral control” value in the series with HIV-1 LAI [2] (0.8 μM), in the series on HIV-1 LAI [2] (4.0 μM) and with HIV-1 LAI [2] (20 μM) was −0.1 % vehicle throughout. Also, the “HIV infection blocked by control antivirals” value in the series with HIV-1 LAI [2] (0.5 μM) is on record as about 100%. In addition, the “HIV Infectivity in HeLa-CD4-βgal cells (% vehicle)” value with HIV-1 LAI [2] (control antiviral 0.5 μM, duplicate data points) is given as 0.0 % vehicle. For the same compound, the “HIV Infectivity in HeLa CD4 βgal cells (β-galactosidase units)” value in the series with HIV-1 LAI [2] (control antiviral 0.5 μM, individual values) was 3,376 RLU and 3,509 RLU. In “in vitro”, this compound gave a CC50 at 48 h of over 20000 nM. The IC50 in the series on HIV-1 LAI [3] worked out at 8 nM. The “Viability of HeLa-CD4-βgal cells in the XTT assay (percentage values)” value is 111.5% in the series on HeLa-CD4-βgal cells [4] (control antiviral 0.00005 μM); 101.3% with HeLa-CD4-βgal cells [4] (control antiviral 0.0003 μM); 104.6% with HeLa-CD4-βgal cells [4] (control antiviral 0.001 μM); 109.1% in the series on HeLa-CD4-βgal cells [4] (control antiviral 0.006 μM); 103.2% with HeLa-CD4-βgal cells [4] (control antiviral 0.03 μM); 104.5% in the series with HeLa-CD4-βgal cells [4] (control antiviral 0.2 μM). For the same compound, the “Viability of HeLa-CD4-βgal cells in the XTT assay (percentage values)” value is listed as 101.5% in the series on HeLa-CD4-βgal cells [4] (control antiviral 0.8 μM), 104.1% in the series with HeLa-CD4-βgal cells [4] (control antiviral 4.0 μM) and 88.2% in the series on HeLa-CD4-βgal cells [4] (control antiviral 20 μM). In addition, the “Viability of Uninfected HeLa-CD4-β gal Cells (A490)” value turned out to be 0.951 with HeLa-CD4-βgal cells [4] (control antiviral 0.00005 μM); 0.872 in the series with HeLa-CD4-βgal cells [4] (control antiviral 0.0003 μM); 0.897 in the series with HeLa-CD4-βgal cells [4] (control antiviral 0.001 μM); 0.932 with HeLa-CD4-βgal cells [4] (control antiviral 0.006 μM); 0.886 with HeLa-CD4-βgal cells [4] (control antiviral 0.03 μM); 0.873 in the series with HeLa-CD4-βgal cells [4] (control antiviral 0.8 μM). The “Viability of Uninfected HeLa-CD4-β gal Cells (A490)” value in the series with HeLa-CD4-βgal cells [4] (control antiviral 4.0 μM) is 0.894; in the series with HeLa-CD4-βgal cells [4] (control antiviral 20 μM) it was 0.770.

On to `NC(=O)c1ncn([C@@H]2O[C@H](CO)[C@@H](O)[C@H]2O)n1` [Rib, ribavirin, reference compound], for which the “HRSV infection blocked by antiviral control” value in the series on HRSV Long strain (50 μM) is recorded as “over 99%”. In the series with HRSV Long strain (control antiviral 50 μM, 72 hours), the “HRSV Infectivity in HEp-2 cells (% vehicle)” value is listed as −4.7 % vehicle. Besides, in the series with HRSV Long strain (control antiviral 50 μM, duplicate A490 values), the “HRSV Infectivity in HEp-2 cells - Raw OD- Absorbance (490 nm)” value was 0.195 and 0.176.
